Test results: publication PMC12463534, “Exploring the Anticancer Properties of 4-Phenylthiazole-Based Ru(II) and Os(II) Metallacycles Featuring 1-Methylimidazole as N-Donor Functionality” (Bioinorganic Chemistry and Applications, 2025)
Where two headings read alike, the source gives them in different places.

How the values were obtained:
SW480 cells = test: DCFH-DA assay, cellular ROS levels; type: cell-based, human; settings: 2 h, concentration dependent
Procedure: For this approach, SW480 cells were subjected to the 2′,7′-dichlorofluorescin-diacetate (DCFH-DA) assay.
SW480 colon adenocarcinoma cells were trypsinized for 5 min in a humidified incubator at 37°C and under a 5% CO2 atmosphere. Supplemented MEM was added to stop trypsinization, and cells were centrifuged for 3 min at 1200 rpm (Heraeus Megafuge 1.0R). After cell counting, SW480 cells were seeded in 100-μL aliquots in densities of 2.5 × 10^4 cells/well into 96-well clear flat-bottom microplates (CytoOne, TC-treated, from Starlab). After incubation for 24 h, cells were washed with 200 μL of Hanks' balanced salt solution (HBSS; Sigma-Aldrich; supplemented with 1% heat-inactivated FCS). […] After washing cells with 200 μL of supplemented HBSS, serially diluted test compounds in phenol-red-free Opti-MEM (Gibco), supplemented with 1% heat-inactivated FCS, were added in 200-μl triplicates and tert-butyl hydroperoxide (TBHP) was applied as positive control. […] Blank-corrected values were calculated relative to negative controls (treated with drug-free supplemented Opti-MEM) from three independent experiments.

[1] = test system: A549 lung adenocarcinoma cells; design: method as in PMID 38426897; settings: MTT assay, exposure time 96 h; ref [5]; read-out: 50% inhibitory concentration A549 (chlorido complexes, reference) (converted); cited from earlier work
Balb/c mice = test: Toxicity experiments in Balb/c mice (MTD); settings: for Toxicity in mice: i.p. 50 mg/kg, three consecutive days, 10% DMSO in 0.9% NaCl; for MTD fold lower compared to 1c and 3c: mice
Procedure: Finally, we were interested in the anticancer activity of selected complexes of our panel in an in vivo mouse setting. Before injecting the compounds in tumor-bearing mice, toxicity experiments were performed. […] On the last day of therapy, most animals were sacrificed and tissues as well as tumors collected. Only four mice (per group) were kept to get information on the impact of the drugs on the overall survival.

[2] = test system: SW480 colon adenocarcinoma cells; design: method as in PMID 38426897; settings: MTT assay, exposure time 96 h; ref [5]; read-out: 50% inhibitory concentration SW480 (chlorido complexes, reference) (converted); cited from earlier work
[3] = test system: CH1/PA-1 ovarian teratocarcinoma cells; design: method as in PMID 38426897; settings: MTT assay, exposure time 96 h; ref [5]; read-out: 50% inhibitory concentration CH1 (chlorido complexes, reference) (converted); cited from earlier work
[4] = test system: HCT116 multicellular tumor spheroids (3D); test: Resazurin assay, HCT116 3D multicellular tumor spheroids; settings: read-out: IC50 3D; HCT116 3D spheroids, resazurin assay, 96 h exposure
[5] = test system: G4 forming sequences (h-Telo, bcl2, hTERT, Kit1, Kit2) and dsDNA; design: method as in PMID 38426897; settings: recent work; ref [5]; cited from earlier work
[6] = test system: HCT116 colorectal cancer cell line (2D); test: Resazurin assay, HCT116 2D (monolayer) culture; settings: read-out: IC50 2D, resazurin assay, 96 h exposure
[7] = test system: CH1/PA-1 ovarian teratocarcinoma cells; test: MTT assay, inhibition of cancer cell growth, CH1/PA-1; settings: read-out: 50% inhibitory concentration CH1, exposure time 96 h
Procedure: (§2) CH1/PA-1 ovarian teratocarcinoma cells (CH1, RRID: CVCL_4992, provided by L. R. Kelland, CRC Center for Cancer Therapeutics, Institute of Cancer Research, Sutton, UK; confirmed by STR profiling as PA-1 ovarian teratocarcinoma cells at Multiplexion, Heidelberg, Germany), SW480 colon adenocarcinoma (RRID: CVCL_0546), and A549 lung adenocarcinoma cells (NCI-H2618, RRID: CVCL_A549; both cell lines were obtained from the American Type Culture Collection (ATCC), Manassas, VA, USA) were grown as adherent cultures in 75-cm^2 culture flasks (Starlab, Hamburg, Germany) by using minimal essential medium (MEM) supplemented with 1 mM sodium pyruvate, 4 mM L-glutamine, 1% (v/v) nonessential amino acids from 100-fold stock (all purchased from Sigma-Aldrich), and 10% heat-inactivated fetal bovine serum (Serana, Pessin, Germany).
(§3) The 3-(4,5-dimethylthiazol-2-yl)-2,5-diphenyl-2H tetrazolium bromide (MTT, Acros Organics, Geel, Belgium) assay was used to detect the cytotoxicity of the compounds after 96-h incubation. For this purpose, cells were harvested from culture flasks by trypsinization, seeded in 100-μL aliquots into 96-well microculture plates (Starlab, UK) in densities of 1 × 10^3 (CH1/PA-1), 2 × 10^3 (SW480), and 3 × 10^3 (A549) cells per well and incubated for 24 h prior to exposure to the test compounds. Stock solutions of test compounds were prepared in DMF, which were then diluted in MEM (not to exceed a final content of 0.5% v/v of organic solvent in the test plates), and serial dilutions were added in aliquots of 100 μL per well. […] After incubation for 4 h, the medium/MTT mixtures were removed, and the produced formazan crystals were dissolved in 150 μL DMSO per well. Optical densities at 550 nm were measured spectrophotometrically with a ELx808 Absorbance Microplate Reader (Bio-Tek, Winooski, VT, USA) by using a reference wavelength of 690 nm to correct for unspecific absorption.

Solubility in 1% DMF/PBS = test: Solubility in 1% DMF/PBS
Excerpt: Solubility is an important factor for the application of metallodrugs. DMF was used as solubilizer to allow comparison to the respective chlorido complexes where the usage of DMSO would lead to stable DMSO adducts.
(§1) As the coordinated p-cym and leaving groups are present in all synthesized complexes, we focused on the differently substituted 4-phenylthiazoles for estimated changes in lipophilicity.

[8] = test system: SW480 colon adenocarcinoma cells; test: MTT assay, inhibition of cancer cell growth, SW480; settings: read-out: 50% inhibitory concentration SW480, exposure time 96 h
Procedure: as §2, §3

SW480 cancer cells = test: Cellular accumulation (ICP-MS) in SW480 cells; settings: 50 μM, 0.5% DMF in MEM, SW480, exposure time 2 h
Procedure: as §1
Cellular accumulation of the compounds was studied based on a method described previously with modifications. 1.8 × 10^5 SW480 cells per well were seeded in aliquots of 1 mL of complete MEM (see above) into 12-well plates (CytoOne, tissue culture treated, Starlab) and incubated at 37°C for 24 h. Then, cells were exposed for 2 h at 37°C to 50 μM solutions of the test compounds (containing 0.5% DMF) in fresh 0.5 mL of complete MEM upon exchange of the medium. Afterward, cells were washed three times with 1 mL PBS per well, lysed with 0.4 mL sub-boiled HNO3 per well for 1 h at room temperature, and 0.3 mL of each sample was diluted with 7.7 mL Milli-Q water. Adsorption/desorption controls were prepared in the same manner in cell-free wells. Ruthenium content was quantified by ICP-MS using an ICP-quadrupole MS Agilent 7800 instrument (Agilent Technologies, Waldbronn, Germany) as described previously.

[9] = test system: G4 forming sequences (h-Telo, bcl2, hTERT, Kit1, Kit2) and dsDNA; test: FRET melting assay, G-quadruplex / B-DNA interaction; type: binding, human; settings: 60 mM potassium cacodylate pH 7.4, 2 h incubation
Procedure: G4s are DNA secondary motifs that play crucial roles in cancer development. […] The complexes were incubated with different G4 forming sequences: one derived from human telomere-forming (h-Telo) and four corresponding to promoter regions of oncogenes, namely, bcl2, hTERT, Kit1, and Kit2. For comparison, a self-complementary sequence called dsDNA was used to represent B-DNA (Table S2).
FRET experiments were conducted using an Applied Biosystems QuantStudio 6 PCR cycler in a 96-well format equipped with a FAM (6-carboxyfluorescein) filter. Oligonucleotide stock solutions, labelled with FAM and TAMRA (6-carboxytetramethylrhodamine) probes, were diluted to the desired concentration in a 60-mM potassium cacodylate buffer (pH 7.4). To fold the oligonucleotides into their B-DNA or G4 topologies, the solutions were heated to 95°C for 5 min and then allowed to cool slowly to room temperature overnight. The final concentration of the oligonucleotides was 0.2 μM, with a total volume of 30 μL in each well. Metal complexes were dissolved in DMF to prepare 2 mM stock solutions and further diluted with the buffer, where DMF concentration never exceeded 0.05%. Mixtures of oligonucleotides and metal compounds were left at room temperature for 2 h. Data were collected twice, each time in duplicate, over a temperature range of 25°C–95°C, with a ramp of 1°C every 30 s. FAM emission data were normalized from 0 to 1 to compare different datasets. After data normalization, we extrapolated the T1/2 values, i.e., the temperature at which normalized FAM emission is 0.5. The DNA concentration is expressed in strands.

[10] = Stability and reactivity in aqueous solution (1H-NMR, UV-vis)
Procedure: The exact concentration of the metal complex stock solutions was calculated on weight-in-volume basis. Complexes were dissolved in water in 1–5 mM concentration.
The path length was 1 cm.
^1H-NMR spectroscopic studies were carried out on a Bruker FT-NMR spectrometer AV NEO 500.10 MHz and a Bruker Avance III HD Ascend 500 Plus instrument. All ^1H-NMR spectra were recorded using a standard Bruker noesygppr1d pulse sequence to suppress water resonance. […] Samples contained 10% (v/v) D2O with a complex concentration of ca. 1 mM. Samples were prepared in pH 1.3 aqueous HCl solution or in pH 7.4 PBS.

[11] = test system: A549 lung adenocarcinoma cells; test: MTT assay, inhibition of cancer cell growth, A549; settings: read-out: 50% inhibitory concentration A549, exposure time 96 h
Procedure: as §2, §3

| Compound | Effect on intracellular ROS levels (SW480 cells) | IC50 [1] [µM] | Maximal tolerable dose (MTD) for repeated applications (Balb/c mice; Balb/c mice, i.p.) [mg/kg] | Toxicity in mice (Balb/c mice; Balb/c mice) | MTD fold lower compared to 1c and 3c (Balb/c mice) [fold] | IC50 [2] [µM] | IC50 [3] [µM] | IC50 [4] [µM] | Stabilization of DNA G-quadruplex structures [5] | IC50 [6] [µM] | IC50 [7] [µM] | Solubility (Solubility in 1% DMF/PBS) [mM] | IC50 [8] [µM] | Cellular accumulation, fg Ru/cell (SW480 cancer cells) [fg Ru/cell] | Stabilization of oligonucleotides (G4s or B-DNA) [9] | Sensitivity to chloride: replacement of coordinated MeIm ([10]; 3 M KCl, pH 7.4, UV-vis) | Decomposition at pH 7.4 ([10]; PBS pH 7.4, 1 mM complex, 25°C, within 6 days, 1H-NMR) | Behaviour in acidic solution ([10]; pH = 1.0 or 1.3 (HCl), followed in time up to 6 days, 1H-NMR/UV-vis) | Spectral change at pH 10.0 ([10]; pH = 10.0 (NaOH), within 2 days, UV-vis) | IC50 [11] [µM] |
| --- | --- | --- | --- | --- | --- | --- | --- | --- | --- | --- | --- | --- | --- | --- | --- | --- | --- | --- | --- | --- |
| Cc1ccc(C(C)C)cc1.[Cl][Ru][c]1ccccc1-c1cscn1 [Compound 1a] | constantly decrease ROS levels with increasing concentrations | 24 | 5 | highly toxic | 10 | 9.5 | 3 | 31 ± 5 | stabilize DNA G-quadruplex (G4) structures | 18 ± 5 | – | – | – | – | – | – | – | – | – | – |
| Cc1ccc(-c2cscn2)[c]([Ru][Cl])c1.Cc1ccc(C(C)C)cc1 [Compound 1d] | – | 34 | – | – | – | 19 | 14 | – | stabilize DNA G-quadruplex (G4) structures | – | – | – | – | – | – | – | – | – | – | – |
| Cc1ccc(C(C)C)cc1.Cn1cc[n+]([Ru-]2[c]3ccccc3-c3csc[n+]32)c1.O=[N+]([O-])[O-] [Compound 3a, [((3-κN)-1-Methylimidazole)(4-phenylthiazolato-κN,κC2′)(η^6-p-cymene)ruthenium(II)] Nitrate] | constantly decrease ROS levels with increasing concentrations | – | – | highly toxic | 10 | – | – | 10.6 ± 0.9 | – | 8.4 ± 0.7 | 1.9 ± 0.1 | 9.08 | 5.4 ± 1.1 | 387 ± 16 | No stabilization | could not replace coordinated MeIm | no decomposition | decomposition | no spectral change | 11 ± 1 |
